According to paper PMC5651374 (Alzheimer's & Dementia : Translational Research & Clinical …, 2016):

Details: brain imaging

Structure (SMILES): C[N+]1=C(C=CC=CC=C2N(CCCCCC(=O)ON3C(=O)CCC3=O)c3ccc4ccccc4c3C2(C)C)C(C)(C)c2c1ccc1ccccc21.[Cl-] [Cy5 dye, Cyanine5.5 NHS ester dye]
- ability to cross the BBB, dye injected alone: could not on its own cross the BBB
